Active and inactive are the calls of the source. The calls are words filed in the database; no cut-off is given here. Peptide text beside a SMILES is read from it. * marks the point of attachment. RhodamineB = CCN(CC)c1ccc2c(-c3ccccc3C(=O)*)c3ccc(=[N+](CC)CC)cc-3oc2c1
Experiments:
[1] = target: T1, fMet-Leu-Phe receptor (Homo sapiens) (UniProt P21462); assay: Antagonist activity at FPR1 in human peripheral blood polymorphonuclear neutrophils assessed as inhibition of fMLF-induced ROS production at <500 nM preincubated for 5 mins followed fMLF stimulation by isoluminol/HRP-based chemiluminescence assay
T1 sequence (whole entry): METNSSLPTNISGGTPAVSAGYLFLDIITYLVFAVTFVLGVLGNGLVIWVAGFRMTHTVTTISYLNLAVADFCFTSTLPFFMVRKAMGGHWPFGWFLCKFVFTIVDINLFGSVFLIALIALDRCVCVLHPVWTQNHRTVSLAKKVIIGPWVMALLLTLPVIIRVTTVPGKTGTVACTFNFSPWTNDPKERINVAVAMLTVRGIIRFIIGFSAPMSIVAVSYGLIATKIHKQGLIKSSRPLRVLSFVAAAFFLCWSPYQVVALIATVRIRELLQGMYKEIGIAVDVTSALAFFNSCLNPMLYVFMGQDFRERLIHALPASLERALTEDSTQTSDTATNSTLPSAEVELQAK

[2] = target: T2, N-formyl peptide receptor 2 (Homo sapiens, UniProt P25090); assay: Antagonist activity at FPR2 in human peripheral blood polymorphonuclear neutrophils assessed as inhibition of WKYMVM-peptide induced ROS production preincubated for 5 mins followed WKYMVM-peptide stimulation by isoluminol/HRP-based chemiluminescence assay
T2 sequence (P25090 whole entry): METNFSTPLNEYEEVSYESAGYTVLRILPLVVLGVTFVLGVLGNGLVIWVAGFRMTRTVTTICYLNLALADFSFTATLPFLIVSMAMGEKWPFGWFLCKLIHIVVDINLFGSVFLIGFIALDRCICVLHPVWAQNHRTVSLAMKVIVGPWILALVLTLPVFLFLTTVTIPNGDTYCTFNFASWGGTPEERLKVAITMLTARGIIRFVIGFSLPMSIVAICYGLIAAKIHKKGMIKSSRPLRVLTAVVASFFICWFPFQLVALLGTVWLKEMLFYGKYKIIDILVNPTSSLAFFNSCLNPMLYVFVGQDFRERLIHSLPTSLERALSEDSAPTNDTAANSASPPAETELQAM

Neutrophil = assay: Inhibition of PMA-induced superoxide production in human peripheral blood polymorphonuclear neutrophils at 500 nM preincubated for 5 mins followed PMA stimulation by isoluminol/HRP-based chemiluminescence assay; format: functional, cell-based
[3] = target: T3, N-formyl peptide receptor 2 (Homo sapiens) (UniProt P25090); assay: Antagonist activity at FPR2 in human peripheral blood polymorphonuclear neutrophils assessed as inhibition of WKYMVM-peptide induced ROS production at <500 nM preincubated for 5 mins followed WKYMVM-peptide stimulation by isoluminol/HRP-based chemiluminescence assay
T3 sequence (whole entry): T2 sequence (P25090 whole entry)

[4] = target: T2, N-formyl peptide receptor 2; assay: Antagonist activity at FPR2 in human peripheral blood polymorphonuclear neutrophils assessed as inhibition of WKYMVM-peptide induced ROS production preincubated for 5 mins followed WKYMVM-peptide stimulation measured up to 20 mins by isoluminol-based chemiluminescence assay
[5] = target: T1, fMet-Leu-Phe receptor (Homo sapiens); assay: Antagonist activity at FPR1 in human peripheral blood polymorphonuclear neutrophils assessed as inhibition of fMLF-induced ROS production at >= 1 uM preincubated for 5 mins followed by fMLF stimulation by isoluminol/HRP-based chemiluminescence assay

Row | inhibition [1] | IC50 [2] | SMILES | also measured
1 | inactive | 0.035 µM | CCN(CC)c1ccc2c(-c3ccccc3C(=O)N[C@@H](CCCCN)C(=O)N(CCC(=O)N[C@@H](CCCCN)C(=O)N(CCC(=O)N[C@@H](CCCCN)C(=O)N(CCC(=O)N[C@@H](CCCCN)C(=O)N(CCC(=O)N[C@@H](CCCCN)C(=O)N(CCC(=O)N[C@@H](CCCCN)C(=O)N(CCC(=O)N[C@@H](CCCCN)C(=O)N(CCC(N)=O)Cc3ccccc3)Cc3ccccc3)Cc3ccccc3)Cc3ccccc3)Cc3ccccc3)Cc3ccccc3)Cc3ccccc3)c3ccc(=[N+](CC)CC)cc-3oc2c1 | –
2 | inactive | 0.018 µM | CCN(CC)c1ccc2c(-c3ccccc3C(=O)N[C@@H](CCCCN)C(=O)N(CCC(=O)N[C@@H](CCCCN)C(=O)N(CCC(=O)N[C@@H](CCCCN)C(=O)N(CCC(=O)N[C@@H](CCCCN)C(=O)N(CCC(=O)N[C@@H](CCCCN)C(=O)N(CCC(N)=O)Cc3ccccc3)Cc3ccccc3)Cc3ccccc3)Cc3ccccc3)Cc3ccccc3)c3ccc(=[N+](CC)CC)cc-3oc2c1 | –
3 | inactive | 0.273 µM | CCN(CC)c1ccc2c(-c3ccccc3C(=O)N[C@@H](CCCCN)C(=O)N(CCC(=O)N[C@@H](CCCCN)C(=O)N(CCC(N)=O)Cc3ccccc3)Cc3ccccc3)c3ccc(=[N+](CC)CC)cc-3oc2c1 | –
4 | inactive | 0.028 µM | CCN(CC)c1ccc2c(-c3ccccc3C(=O)N[C@@H](CCCCN)C(=O)N(CCC(=O)N[C@@H](CCCCN)C(=O)N(CCC(=O)N[C@@H](CCCCN)C(=O)N(CCC(N)=O)Cc3ccccc3)Cc3ccccc3)Cc3ccccc3)c3ccc(=[N+](CC)CC)cc-3oc2c1 | –
5 | inactive | 0.013 µM | CCN(CC)c1ccc2c(-c3ccccc3C(=O)N[C@@H](CCCCN)C(=O)N(CCC(=O)N[C@@H](CCCCN)C(=O)N(CCC(=O)N[C@@H](CCCCN)C(=O)N(CCC(=O)N[C@@H](CCCCN)C(=O)N(CCC(N)=O)Cc3ccccc3)Cc3ccccc3)Cc3ccccc3)Cc3ccccc3)c3ccc(=[N+](CC)CC)cc-3oc2c1 | –
6 | inactive | 0.024 µM | CCN(CC)c1ccc2c(-c3ccccc3C(=O)N[C@@H](CCCCN)C(=O)N(CCC(=O)N[C@@H](CCCCN)C(=O)N(CCC(=O)N[C@@H](CCCCN)C(=O)N(CCC(=O)N[C@@H](CCCCN)C(=O)N(CCC(=O)N[C@@H](CCCCN)C(=O)N(CCC(=O)N[C@@H](CCCCN)C(=O)N(CCC(N)=O)Cc3ccc(C)cc3)Cc3ccc(C)cc3)Cc3ccc(C)cc3)Cc3ccc(C)cc3)Cc3ccc(C)cc3)Cc3ccc(C)cc3)c3ccc(=[N+](CC)CC)cc-3oc2c1 | –

Continued, molecule first:

Row | SMILES | inhibition [1] | IC50 [2] | also measured
7 | CCN(CC)c1ccc2c(-c3ccccc3C(=O)N[C@@H](CCCCN)C(=O)N(CCC(N)=O)Cc3ccccc3)c3ccc(=[N+](CC)CC)cc-3oc2c1 | inactive | 0.759 µM | –
8 | CCN(CC)c1ccc2c(-c3ccccc3C(=O)N[C@@H](CCCCN)C(=O)N(CCC(=O)N[C@@H](CCCCN)C(=O)N(CCC(=O)N[C@@H](CCCCN)C(=O)N(CCC(=O)N[C@@H](CCCCN)C(=O)N(CCC(=O)N[C@@H](CCCCN)C(=O)N(CCC(=O)N[C@@H](CCCCN)C(=O)N(CCC(N)=O)[C@@H](C)c3ccccc3)[C@@H](C)c3ccccc3)[C@@H](C)c3ccccc3)[C@@H](C)c3ccccc3)[C@@H](C)c3ccccc3)[C@@H](C)c3ccccc3)c3ccc(=[N+](CC)CC)cc-3oc2c1 | inactive | 0.034 µM | –
9 | CCN(CC)c1ccc2c(-c3ccccc3C(=O)N[C@@H](CCCCN)C(=O)N(CCC(=O)N[C@@H](CCCCN)C(=O)N(CCC(=O)N[C@@H](CCCCN)C(=O)N(CCC(=O)N[C@@H](CCCCN)C(=O)N(CCC(=O)N[C@@H](CCCCN)C(=O)N(CCC(=O)N[C@@H](CCCCN)C(=O)N(CCC(N)=O)Cc3ccc(F)cc3)Cc3ccc(F)cc3)Cc3ccc(F)cc3)Cc3ccc(F)cc3)Cc3ccc(F)cc3)Cc3ccc(F)cc3)c3ccc(=[N+](CC)CC)cc-3oc2c1 | inactive | 0.01 µM | inhibition (Neutrophil): Active
10 | CCN(CC)c1ccc2c(-c3ccccc3C(=O)N[C@@H](CCCCN)C(=O)N[C@@H](Cc3ccccc3)C(=O)N[C@@H](CCCCN)C(=O)N[C@@H](Cc3ccccc3)C(=O)N[C@@H](CCCCN)C(=O)N[C@@H](Cc3ccccc3)C(=O)N[C@@H](CCCCN)C(=O)N[C@@H](Cc3ccccc3)C(=O)N[C@@H](CCCCN)C(=O)N[C@@H](Cc3ccccc3)C(=O)N[C@@H](CCCCN)C(=O)N[C@@H](Cc3ccccc3)C(N)=O)c3ccc(=[N+](CC)CC)cc-3oc2c1 (RhodamineB-KFKFKFKFKFKF-NH2) | inactive | – | inhibition [3]: inactive
11 | CCN(CC)c1ccc2c(-c3ccccc3C(=O)N[C@@H](CCCCN)C(=O)N(CCC(=O)N[C@@H](CCCCN)C(=O)N(CCC(=O)N[C@@H](CCCCN)C(=O)N(CCC(=O)N[C@@H](CCCCN)C(=O)N(CCC(=O)N[C@@H](CCCCN)C(=O)N(CCC(=O)N[C@@H](CCCCN)C(=O)N(CCC(N)=O)[C@H](C)c3ccccc3)[C@H](C)c3ccccc3)[C@H](C)c3ccccc3)[C@H](C)c3ccccc3)[C@H](C)c3ccccc3)[C@H](C)c3ccccc3)c3ccc(=[N+](CC)CC)cc-3oc2c1 | inactive | 0.044 µM | –
12 | CCN(CC)c1ccc2c(-c3ccccc3C(=O)N[C@@H](CCC(N)=O)C(=O)N[C@@H](CCCNC(=N)N)C(=O)N[C@@H](CC(C)C)C(=O)N[C@@H](Cc3ccccc3)C(=O)N[C@@H](CCC(N)=O)C(=O)NC(C(=O)N[C@@H](CCCCN)C(=O)NCC(=O)N[C@@H](CCCNC(=N)N)C(=O)N[C@@H](CCCNC(=N)N)C(=O)O)C(C)C)c3ccc(=[N+](CC)CC)cc-3oc2c1 (single isomer, unassigned) | inactive | – | IC50 [4]: 0.06 µM
13 | CCCCCCCCCCCCCCCC(=O)N[C@@H](CCCCN)C(=O)N(CCC(=O)N[C@@H](CCCCN)C(=O)N(CCC(=O)N[C@@H](CCCCN)C(=O)N(CCC(=O)N[C@@H](CCCCN)C(=O)N(CCC(=O)N[C@@H](CCCCN)C(=O)N(CCC(=O)N[C@@H](CCCCN)C(=O)N(CCC(N)=O)[C@@H](C)c1ccccc1)[C@@H](C)c1ccccc1)[C@@H](C)c1ccccc1)[C@@H](C)c1ccccc1)[C@@H](C)c1ccccc1)[C@@H](C)c1ccccc1 | inactive | – | IC50 [4]: 0.041 µM
14 | CCCCCCCCCCCCCCCC(=O)N[C@H](CCC(N)=O)C(=O)N[C@H](CCCNC(=N)N)C(=O)N[C@H](CC(C)C)C(=O)N[C@H](Cc1ccccc1)C(=O)N[C@H](CCC(N)=O)C(=O)N[C@@H](C(=O)N[C@H](CCCCN)C(=O)NCC(=O)N[C@H](CCCNC(=N)N)C(=O)N[C@H](CCCNC(=N)N)C(N)=O)C(C)C | – | 1.12 µM | inhibition [5]: Active
15 | CCN(CC)c1ccc2c(-c3ccccc3C(=O)N[C@H](CCC(N)=O)C(=O)N[C@H](CCCNC(=N)N)C(=O)N[C@H](CC(C)C)C(=O)N[C@H](Cc3ccccc3)C(=O)N[C@H](CCC(N)=O)C(=O)N[C@@H](C(=O)N[C@H](CCCCN)C(=O)NCC(=O)N[C@H](CCCNC(=N)N)C(=O)N[C@H](CCCNC(=N)N)C(N)=O)C(C)C)c3ccc(=[N+](CC)CC)cc-3oc2c1 | inactive | – | inhibition [3]: inactive
16 | CCN(CC)c1ccc2c(-c3ccccc3C(=O)N[C@@H](CCCCN)C(=O)N(CCC(=O)N[C@@H](CCCCN)C(=O)N(CCC(=O)N[C@@H](CCCCN)C(=O)N(CCC(=O)N[C@@H](CCCCN)C(=O)N(CCC(=O)N[C@@H](CCCCN)C(=O)N(CCC(=O)N[C@@H](CCCCN)C(=O)N(CCC(=O)N[C@@H](CCCCN)C(=O)N(CCC(=O)N[C@@H](CCCCN)C(=O)N(CCC(N)=O)Cc3ccccc3)Cc3ccccc3)Cc3ccccc3)Cc3ccccc3)Cc3ccccc3)Cc3ccccc3)Cc3ccccc3)Cc3ccccc3)c3ccc(=[N+](CC)CC)cc-3oc2c1 | inactive | 0.041 µM | –
17 | CCCCCCCCCCCCCCCC(=O)N[C@@H](CCC(N)=O)C(=O)N[C@@H](CCCNC(=N)N)C(=O)N[C@@H](CC(C)C)C(=O)N[C@@H](Cc1ccccc1)C(=O)N[C@@H](CCC(N)=O)C(=O)NC(C(=O)N[C@@H](CCCCN)C(=O)NCC(=O)N[C@@H](CCCNC(=N)N)C(=O)N[C@@H](CCCNC(=N)N)C(N)=O)C(C)C (single isomer, unassigned) | – | 0.9 µM | inhibition [5]: Active
18 | CCN(CC)c1ccc2c(-c3ccccc3C(=O)N[C@@H](CCCCN)C(=O)N(CCC(=O)N[C@@H](CCCCN)C(=O)N(CCC(=O)N[C@@H](CCCCN)C(=O)N(CCC(=O)N[C@@H](CCCCN)C(=O)N(CCC(=O)N[C@@H](CCCCN)C(=O)N(CCC(=O)N[C@@H](CCCCN)C(=O)N(CCC(N)=O)Cc3cc(F)c(F)c(F)c3)Cc3cc(F)c(F)c(F)c3)Cc3cc(F)c(F)c(F)c3)Cc3cc(F)c(F)c(F)c3)Cc3cc(F)c(F)c(F)c3)Cc3cc(F)c(F)c(F)c3)c3ccc(=[N+](CC)CC)cc-3oc2c1 | inactive | 0.053 µM | –
